Data as given in patent US10406128B2, “Treatment and diagnosis of colon cancer” (The Rockefeller University, priority 2012, dated 2019).

What was measured:
LvM3b cells [1] = assay: Liver metastasis in mice injected with LvM3b cells, treated by daily intra-peritoneal injection, bioluminescent imaging; assay type: in vivo
Method: Mice were treated with 10 mg of cyclocreatine or saline vehicle, administered through intra-peritoneal injection. The treatment regime started one day after inoculation of tumor cells and continued until the mice were euthanized. Beta-guanidipropionic acid was administered at a dose of 200 ul of 0.5M solution through intra-peritoneal injection. Treatment regime were as that for cyclocreatine treatment.
Finally, assays were carried out to determine the impact of small-molecule inhibition of CKB and restriction of creatine availability on colon cancer metastasis. Cyclocreatine, which resembles phosphocreatine, is a transition-state analog for creatine kinases. To examine the effect of cyclocreatine, bioluminescent measurements of liver metastasis were carried out in mice injected with 5×10^5 LvM3b cells and treated with cyclocreatine daily for two weeks. The mice were then euthanized and livers excised for ex vivo imaging at the end of the treatment.
Similar assays were carried out using a creatine transporter inhibitor beta-guanidinopropionic acid (B-GPA). Bioluminescent measurements were used to examine liver metastasis in mice injected with 5×10^5 LvM3b cells and treated with B-GPA daily for two weeks.
In this example, assays were carried out to confirm the therapeutic potential of targeting the creatine transporter channel SLC6a8 by administering the small molecule B-GPA, which is an inhibitor of SLC6a8. […] To confirm this therapeutic effect, mice injected with LvM3b colon cancer cells we treated with either B-GPA or control vehicle (PBS) via intra-peritoneal injection daily for three weeks (FIG. 2). The mice were euthanized at three weeks and liver extracted for bioluminescent imaging and gross histology.
More specifically, the average photon flux ratios as measure by the bioluminescence imaging for the control group (without treatment of B-GPA) and the treated groups were about 800 and 100, respectively.

LvM3b cells [2] = assay: Liver metastasis in mice injected with LvM3b cells with or without CKB knockdown, pre-treated with metabolite; assay type: in vivo; settings: for rescue of metastasis suppression upon CKB knockdown: LvM3b cells with CKB knockdown, pre-treated 10 uM, day 21
Source text: CKB is known to regulate the reservoir of rapidly mobilized high-energy phosphates in tissues such as the brain and kidneys by catalyzing the transfer of a high-energy phosphate group from phosphocreatine to ADP, yielding ATP and creatine. It was hypothesized that CKB generation of ATP from phosphocreatine might provide colon cancer cells with an energetic advantage during hepatic colonization. To determine if ATP, the end-product of CKB catalysis, could rescue metastasis suppression seen upon CKB knockdown, CKB knockdown cells were loaded with ATP prior to injection of cells in experimental metastasis assays. Briefly, liver metastasis was examined in mice injected with 5×10^5 LvM3b with or without CKB knockdown and pre-treated with 100 uM ATP or vehicle. Metastatic burden was monitored by bioluminescent imaging and mice euthanized 21 days after injection.
Similar studies were done to determine whether creatine and phosphocreatine could rescue the phenotype of seen upon CKB knock-down. More specifically, assays were performed to examine liver metastasis in mice injected with 5×10^5 LvM3b cells pre-treated with 10 uM creatine, in the background of CKB knockdown. The mice were then euthanized as described above and liver extracted for ex vivo bioluminescent imaging at day 21 after injection. Also, colorectal cancer metastasis was examined in mice injected with 5×10^5 LvM3b cells with CKB knockdown and pre-treated with 10 uM creatine-phosphate. Liver metastasis was monitored by bioluminescent imaging and mice were euthanized as described above.

SLC6a8 [3] = biological target: T1, SLC6a8 (Homo sapiens, UniProt P48029); assay: Liver metastasis by LvM3b cells expressing shRNA targeting SLC6a8; assay type: in vivo, mice; design: endogenous in cells; host or cells: LvM3b colon cancer cells (derivative of LS-174T) injected into mice; settings: three weeks after inoculation
T1 sequence (P48029 1-635): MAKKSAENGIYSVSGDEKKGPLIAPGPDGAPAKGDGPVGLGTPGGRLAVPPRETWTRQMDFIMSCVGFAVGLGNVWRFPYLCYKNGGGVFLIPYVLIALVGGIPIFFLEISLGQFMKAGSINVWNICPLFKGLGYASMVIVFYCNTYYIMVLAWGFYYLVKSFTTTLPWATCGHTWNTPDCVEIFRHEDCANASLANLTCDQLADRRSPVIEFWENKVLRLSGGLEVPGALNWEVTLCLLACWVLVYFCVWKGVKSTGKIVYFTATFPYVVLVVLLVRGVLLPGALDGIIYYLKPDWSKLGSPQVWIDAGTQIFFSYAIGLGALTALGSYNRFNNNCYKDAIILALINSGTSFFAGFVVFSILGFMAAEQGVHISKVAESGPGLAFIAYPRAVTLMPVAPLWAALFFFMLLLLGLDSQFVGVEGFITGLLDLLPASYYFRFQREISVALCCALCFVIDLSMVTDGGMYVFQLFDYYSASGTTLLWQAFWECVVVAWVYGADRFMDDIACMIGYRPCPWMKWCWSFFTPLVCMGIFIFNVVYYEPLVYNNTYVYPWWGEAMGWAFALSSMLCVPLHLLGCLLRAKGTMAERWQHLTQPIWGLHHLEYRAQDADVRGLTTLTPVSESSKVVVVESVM
Method: (§1) pLKO vectors expressing shRNA hairpins targeting CKB and SLC6a8 were ordered from Sigma-Aldrich. Two independent hairpins that gave the best knockdown of transcript levels were used for all experiments. These hairpin DNA and RNA sequences are listed below:
Briefly, mice were injected with LvM3b colon cancer cells expressing either of two independent short hairpin RNAs (shSLC6a8 #4 or shSLC6a8 #5) targeting the creatine transporter channel SLC6a8 or with control RNA (empty pLKO vector, ordered from Sigma Aldrich) (FIG. 3a). Again, liver metastasis was monitored by bioluminescent imaging and mice were euthanized three weeks after inoculation of cancer cells. Livers were extracted for gross histology.

SLC6a8 [4] = biological target: T1, SLC6a8; assay: Liver metastasis by PANC1 cells expressing shRNA targeting SLC6a8; assay type: in vivo, mice; settings: at 28 days
Source text: as §1
Lastly, the therapeutic benefit of targeting SLC6a8 was investigated in pancreatic cancer cells. To accomplish this, PANC1 pancreatic cancer cells expressing either an shRNA targeting SLC6a8 (shSLC6a8 #5) or a control RNA (empty pLKO vector) were injected into mice. Metastatic progression was monitored by bioluminescent imaging and mice were euthanized in the same manner described above.

SLC6a8 [5] = biological target: T1, SLC6a8; assay: Liver metastasis by SW480 cells expressing shRNA targeting SLC6a8; assay type: in vivo, mice; settings: 5×10^5 SW480 cells; 28 days
Method: as §1
To further confirm the therapeutic benefit of knockdown of SLC6a8, another independent colon cancer cell line (SW480 colon cancer cell line) expressing a short hairpin RNA targeting SLC6a8 (shSLC6a8 #2) was injected into mice (FIG. 3b).

[6] = tested on: PANC1 pancreatic cancer cells; assay: Survival of PANC1 cells pre-treated with B-GPA in immunodeficient mice, bioluminescence imaging; assay type: in vivo; settings: PANC1 cells pre-treated 10 mM 48 hours
Method: Briefly, PANC1 pancreatic cancer cells were incubated for 48 hours with and without the presence of 10 mM of B-GPA, then injected into immunodeficient mice (5×10^5 PANC1 cells each mouse; 4 mice each in the treated and untreated cohort). The mice were imaged with bioluminescence imaging on day 1 after injection and signal was normalized to day zero. […] More specifically, the average photon flux ratios as measure by the bioluminescence imaging for the control group (without treatment of B-GPA) and the treated groups were about 2.7 and 1.6, respectively.

[7] = tested on: PANC1 pancreatic cancer cells; assay: Cell viability of PANC1 cells, WST-1 reagent, Gemcitabine with or without B-GPA; assay type: cell-based, human; settings: 10 mM B-GPA, 48 hours, Gemcitabine 1 nm-1000000 nm
Method: Briefly, 10000 PANC1 cells were seeded in triplicate in 96-well plates and treated with various concentrations of Gemcitabine (1 nm, 10 nm, 100 nm, 1000 nm, 10000 nm, 100000 nm, and 1000000 nm) with or without 10 mM of B-GPA for 48 hours. Cell viability was then assayed using the WST-1 reagent (Roche Applied Science), with absorbance at 440 nm an indicator of the number of viable cells.

[8] = tested on: Ls-LvM3b colon cancer cells; assay: Cell viability of Ls-LvM3b cells, WST-1 reagent, 5'-Fluorouracil with or without B-GPA; assay type: cell-based, human; settings: 10 mM B-GPA, 48 hours
Method: To that end, 10,000 Ls-LvM3b cells were seeded in triplicate in 96-well plates and treated with various concentrations of 5′-Fluorouracil with or without 10 mM of B-GPA for 48 hours. Cell viability was assayed in the same manner described above with absorbance at 440 nm an indicator of the number of viable cells.

[9] = 5×10^5 LvM3b cells, treated daily for two weeks

In the case of `NC1=NCCN1CC(=O)O` [cyclocreatine], the “comparison with standard-of-care FOLFOX chemotherapy” value (LvM3b cells [1]; [9]) is reported as “superior to the current standard-of-care FOLFOX chemotherapy” and the “metastatic colonization (liver metastasis, bioluminescence)” value (LvM3b cells [1]; [9]) is reported as “significantly reduced metastatic colonization”.

With `Nc1ncnc2c1ncn2[C@@H]1O[C@H](COP(=O)(O)OP(=O)(O)OP(=O)(O)O)[C@@H](O)[C@H]1O` [ATP] the “enhancement of suppressed metastasis phenotype” value (LvM3b cells [2]; LvM3b cells depleted of CKB, pre-treated 100 uM, 21 days) was “more than 10 folds” and the “metastatic activity of cells expressing a short-hairpin control” value (LvM3b cells [2]; LvM3b control hairpin cells, pre-treated 100 uM) was “did not enhance the metastatic activity”.

For `CN(CC(=O)O)C(=N)N` [creatine], the “rescue of metastasis suppression upon CKB knockdown” value (LvM3b cells [2]) was “rescued metastasis suppression”.

“shSLC6a8 #4: short hairpin RNA targeting SLC6a8, SEQ ID NO 13 (DNA) / 17 (RNA) (CCGGCUUAUUCCCUACGUCCUGAUCCUCGAGGAUCAGGACGUAGGGAAUAAGUUUUUG; listed as RNA, chemistry not fully specified)” was tested, and the “colon cancer metastasis (liver)” value (SLC6a8 [3]) was “inhibition of colon cancer metastasis”.

For “shSLC6a8 #5: short hairpin RNA targeting SLC6a8, SEQ ID NO 14 (DNA) / 18 (RNA) (CCGGAUUACCUGGUCAAGUCCUUUACUCGAGUAAAGGACUUGACCAGGUAAUUUUUUG; listed as RNA, chemistry not fully specified)”, the pancreatic cancer metastasis (SLC6a8 [4]) was “significant reduction in pancreatic cancer metastasis” and the “colon cancer metastasis (liver)” value (SLC6a8 [3]) was “inhibition of colon cancer metastasis”.

In the case of “shSLC6a8 #2: short hairpin RNA targeting SLC6a8, SEQ ID NO 19 (DNA) / 20 (RNA) (CCGGGCUGGUCUACAACAACACCUACUCGAGUAGGUGUUGUUGUAGACCAGCUUUUUG; listed as RNA, chemistry not fully specified)”, the “metastasis of SW480 colon cancer cells” value (SLC6a8 [5]) is reported as “significantly inhibited metastasis”.

With `N=C(N)NCCC(=O)O` [B-GPA, beta-guanidinopropionic acid] the “metastatic colonization (liver metastasis, bioluminescence)” value (LvM3b cells [1]; [9]) was “significantly reduced metastatic colonization”, the “average photon flux ratio (bioluminescence imaging)” value (LvM3b cells [1]; LvM3b cells, daily for three weeks, control group about 800) was ~100 and the “colon cancer metastasis to the liver” value (LvM3b cells [1]; LvM3b cells, intra-peritoneal injection daily for three weeks, P<0.05) was “significant reduction”. For the same molecule, the “average photon flux ratio (bioluminescence imaging)” value ([6]; day 1 normalized to day zero, control group about 2.7) was ~1.6, the “tumor burden of pancreatic cancer cells in vivo” value ([6]; one day after injection, P<0.05) was “significant reduction” and the “effect on cytotoxic activity of Gemcitabine” value [7] was “enhanced the cytotoxic activity”. The “effect on cytotoxic activity of 5'-Fluorouracil” value [8] was “enhanced the cytotoxic activity”.

For creatine-phosphate, the “rescue of metastasis suppression upon CKB knockdown” value (LvM3b cells [2]) was “rescued metastasis suppression”.
